Assay results: patent US20020058048A1, “TOPICAL CAPSAICIN PREPARATION” (priority 1998, published 2002)
Several values for one entry are separate records, joined by “and”; a condition that tells them apart may be missing. Equal values may be shown once.

How the values were obtained:
hind-limb of rats = assay: Withdrawal latency to thermal stimuli (42° C. water bath) of hind-limb in rats during sensitization by capsaicin; assay type: in vivo, rat; conditions: 0.1% capsaicin solution; for Withdrawal latency time, One hour after appln.: 42° C. water bath; for Withdrawal latency time, Before appln.: baseline before application
Method: 1. 0.1% capsaicin solutions containing varying amount of polyoxyethylene (60) hydrogenated castor oil were prepared by dissolving 0.1 g of capsaicin and 0, 3, 9 or 18g of the surfactant in 26.4 ml of ethanol and then diluting with distilled water q.s. to make a total volume of 100 ml.
Each of 0.1% capsaicin solution thus prepared was applied to the hind-limb of rats. One hour after the application, the limb was placed in a water bath warmed at 42° C. and the length of time (in seconds) elapsed until when the rat withdrew the treated limb from the water bath was determined. […]

cornea of rats = assay: Eye-wiping reflex caused by capsaicin applied to the cornea (eye-wiping method of Jancso); assay type: in vivo, rat; conditions: for Number of wiping, Second: challenge with 0.1% capsaicin solution without surfactant 2 hours after pretreatment with 0.1% capsaicin
From the text: 2. The effect of polyoxyethylene (60) hydrogenated castor oil on the eye-wiping reflex caused by capsaicin and the desensitization to chemical stimuli was studied according to the eye-wiping method reported by Jancso N. et al., in “Direct evidence for neurogenic inflammation and its prevention by denervation and by pretreatment with capsaicin”, Br. J. Phamac. Chemother. 31: 138-151, 1967.
When one drop of 0.1% capsaicin solution was applied to the cornea of rats, the animal immediately began to wipe the cornea with front paws and continued the wiping for about 1 minute.
See, Table 2. […] See, Table 3.
4. The effect of various surfactants on the desensitization of sensory nerves by 0.1% capsaicin was evaluated using the procedure of Test 2.

[1] = polyoxyethylene (60) hydrogenated castor oil 0%
[2] = polyoxyethylene (60) hydrogenated castor oil 3%
[3] = polyoxyethylene (60) hydrogenated castor oil 9%
[4] = polyoxyethylene (60) hydrogenated castor oil 18%

COc1cc(CNC(=O)CCCC/C=C/C(C)C)ccc1O [capsaicin]
Withdrawal latency time, One hour after appln. (hind-limb of rats; [1]): remarkably shortened and 2.45 ± 0.32 sec.
Withdrawal latency time, Before appln. (hind-limb of rats; [1]): 30 ± 0 s
Withdrawal latency time, One hour after appln. (hind-limb of rats; [2]): slightly shortened and 20.29 ± 4.18 sec.
Withdrawal latency time, Before appln. (hind-limb of rats; [2]): 30 ± 0 s
Withdrawal latency time, One hour after appln. (hind-limb of rats; [3]): not affected significantly and 30 ± 0 sec.
Withdrawal latency time, Before appln. (hind-limb of rats; [3]): 30 ± 0 s
Withdrawal latency time, One hour after appln. (hind-limb of rats; [4]): not affected significantly and 27.28 ± 2.35 sec.
Withdrawal latency time, Before appln. (hind-limb of rats; [4]): 30 ± 0 s
Number of wiping, Second (cornea of rats; surfactant 0%): significantly reduced and 9.7 ± 1.6
Number of wiping, Second (cornea of rats; surfactant 3%): significantly reduced and 11.5 ± 0.9
Number of wiping, Second (cornea of rats; surfactant 9%): significantly reduced and 13 ± 0.7
Number of wiping, Second (cornea of rats; surfactant 18%): significantly reduced and 11.7 ± 0.6
Duration of wiping of the cornea with front paws (cornea of rats; one drop applied to the cornea of rats): about 1 minute
Number of wiping, First (cornea of rats; pretreatment drop of 0.1% capsaicin solution with surfactant 0%): 21.5 ± 1.6
Number of wiping, First (cornea of rats; pretreatment drop of 0.1% capsaicin solution with surfactant 3%): not virtually affected and 24 ± 2.1
Number of wiping, First (cornea of rats; pretreatment drop of 0.1% capsaicin solution with surfactant 9%): not virtually affected and 23.5 ± 1.1
Number of wiping, First (cornea of rats; pretreatment drop of 0.1% capsaicin solution with surfactant 18%): not virtually affected and 22 ± 1.4
